Data from US20160113895A1, “Novel Use of Adapalene in Treating Esophageal Cancer and Gastrointestinal Stromal Tumor” (Biodelight Biotech Inc., priority 2013, published 2016).

Key:
HCC827 [1] = test: 3D cell proliferation assay (soft agar), HCC827; format: cell-based, human; settings: Homo sapiens, 3D soft agar
Method: (§1) Drug nsl-8 was further subjected to a 3D cell proliferation assay for assessing its potential in inhibiting the growth of NSCLC tumors. The same four NSCLC cell lines used in 2D proliferation assays were grown in soft agar and the drug was added after the agar has solidified. The drug added cells were then incubated several days until colonies have formed in the solvent control. Subsequently, Alamar Blue which was a cell viability reagent was added and the corresponding fluorescence released was measured as an indirect quantification of colony growth in soft agar.
(§2) For each cell line, some 96 well culture plates were prepared. 100 μL of the soft agar bottom layer (0.6% final concentration in complete medium) was poured and left to solidify. 50 μL of the soft agar top layer (0.4% final concentration) containing the corresponding cells and cell number were then added on top, solidified and such 96 well plates were incubated overnight at 37° C. in 10% CO2. Next day, drugs were added at indicated final concentrations into the inner wells of the plate. Subsequently, the assays were incubated in cell culture incubators for the indicated period of time. Finally, the assays were developed using Alamar Blue and upon 3-5 h of incubation at 37 ° C. fluorescence intensity was determined (excitation: 560 nm, emission: 590 nm). […]

[2] = tested on: four NSCLC cell lines (A549, H1299, H460, HCC827); test: 3D cell proliferation assay, summary over the NSCLC cell lines; format: cell-based; settings: Homo sapiens, span over the four NSCLC cell lines
Method: as §1, §2

HCC827 [3] = test: 2D cell proliferation assay (Alamar Blue), HCC827; format: cell-based, human; settings: Homo sapiens, HCC827, 72 h
Method: There were eight concentrations used for each drug for determining its IC50. […] Actinomycin D was a chemotherapeutic drug simply used as a quality control for all the experiments.
In the 2D cell proliferation assay, cells were cultured in DMEM containing 10% FCS and Penicillin/Streptomycin. For the assays, cells were seeded in 150 μL medium on a 96-well cell culture plate and incubated at 37° C. overnight before the compounds were added. […] A day after cell seeding, 10 μL of prediluted compounds was added to the cells (1:16 dilution). Treatment of cells with 0.1% DMSO or 1% DMSO (for the two top concentrations of nsl-8) and 1.0E-05 M Staurosporine was served as high control (100% viability) and low control (0% viability), respectively. Measurement of the impact of compounds on cell viability was performed as follows: 5000 cells (A549 and HCC827) or 2500 cells (H1299 and H460) were seeded in the inner wells of 96-well-plates in 150 μL complete medium. Next day, compounds were added to the medium to reach the final concentration and then incubated at 37° C. in 5% or 10% CO2 depending on the medium for 72 h.
(§3) Raw data were converted into percent cell viability relative to high control (solvent 0.1% DMSO or 1% DMSO for the two top concentrations of drug nsl-8) and low control (1.0E-05 M Staurosporine), which were set to 100% and 0%, respectively.

H460 = test: 2D cell proliferation assay (Alamar Blue), H460; format: cell-based, human; settings: Homo sapiens, NCI-H460; 2D, H460, 72 h; read-out: IC50
From the text: Nsl-8 was subjected to 2D cell proliferation assays using four NSCLC cell lines (A549 (human adenocarcinomic alveolar basal epithelial cells with k-ras gene mutation), H1299 (human non-small cell lung carcinoma cell line with p53 mutation), H460 (human non-small cell lung carcinoma cell line with k-ras gene mutation), and HCC827 (human NSCLC cells with EGFR mutation of deletion from E746 to A750)) and the results were presented in Table 2. There were eight concentrations used for each drug for determining its IC50. […]. Actinomycin D was a chemotherapeutic drug simply used as a quality control for all the experiments.
In the 2D cell proliferation assay, cells were cultured in DMEM containing 10% FCS and Penicillin/Streptomycin. For the assays, cells were seeded in 150 μL medium on a 96-well cell culture plate and incubated at 37° C. overnight before the compounds were added. Compounds were prepared as predilution which was 16 fold concentrated to the final assay concentration. A day after cell seeding, 10 μL of prediluted compounds was added to the cells (1:16 dilution). Treatment of cells with 0.1% DMSO or 1% DMSO (for the two top concentrations of nsl-8) and 1.0E-05 M Staurosporine was served as high control (100% viability) and low control (0% viability), respectively. Measurement of the impact of compounds on cell viability was performed as follows: 5000 cells (A549 and HCC827) or 2500 cells (H1299 and H460) were seeded in the inner wells of 96-well-plates in 150 μL complete medium. Next day, compounds were added to the medium to reach the final concentration and then incubated at 37° C. in 5% or 10% CO2 depending on the medium for 72 h. Subsequently 10 μL Alamar Blue reagent was added and fluorescence at 590 nm was measured after 5 h incubation at 37° C. in 5% CO2 using a fluorometer.
as §3

- IC50 (HCC827 [1]): 7.2 µM
- IC50 [2]: 0.99 to 13 µM
- IC50 (HCC827 [3]): 11 µM
- IC50 (H460): 2 µM
SMILES: COc1ccc(-c2ccc3cc(C(=O)O)ccc3c2)cc1C12CC3CC(CC(C3)C1)C2 [nsl-8, 6-[3-(1-adamantyl)-4-methoxyphenyl]-2-naphthalenecarboxylic acid]
